For orientation: IC50 means the point on the concentration scale where inhibition reaches its midpoint. A word on the melting point: it is the temperature, or range, at which the solid turns liquid.

This note sets out measurements from publication PMC7470102, “Synthesis, anticancer evaluation and molecular docking studies of new benzimidazole- 1,3,4-oxadiazole derivatives as human topoisomerase types I poison” (Journal of Enzyme Inhibition and Medicinal Chemistry, 2020).

The test system of data set [1] is A549 (lung carcinoma cell line). The data set can be described thus: MTT cytotoxicity assay, A549. In kind it is cell-based. The conditions noted are these: Homo sapiens, A549, MTT assay, read-out: IC50 against A549. Here is the method:
(§1) The anticancer activity of compounds 5a–5o were screened according to the MTT assays. The MTT assays were performed as previously described[32]^,[33]. Anticancer activity of final compounds was assessed against five different cancer cell lines A549 (lung carcinoma cell line), HeLa (cervical cell line), MCF-7 (human breast adenocarcinoma cell line), HepG2 (human liver carcinoma cell line) and C6 (rat glioma cell line) cell lines as well as NIH3T3 (mouse embryo fibroblast cell line). Doxorubicin and Hoechst 33342 were used as the reference drugs in the MTT assays.
(§2) The benzimidazole-1,3,4-oxadiazole derivatives (5a-5o) were tested their cytotoxic effects in vitro using five cancer cell line A549 (lung carcinoma cell line), HeLa (cervical cell line), MCF-7 (human breast adenocarcinoma cell line), HepG2 (human liver carcinoma cell line) and C6 (rat glioma cell line) cell lines as well as NIH3T3 (mouse embryo fibroblast cell line). Doxorubicin and Hoechst 33342 were used for this study as a reference drugs.
Background: Tetrazolium dyes change colour on reduction, which living cells bring about.

The test system of data set [2] is MCF-7 (human breast adenocarcinoma cell line). The data set can be described thus: MTT cytotoxicity assay, MCF-7. In kind it is cell-based. The conditions noted are these: Homo sapiens, MCF7, MCF-7 cell line, read-out: IC50 against MCF-7. Here is the method:
as §1, §2

In data set [3] the test system is C6 (rat glioma cell line). The experiment in a line: MTT cytotoxicity assay, C6. The following applies: Rattus norvegicus, read-out: IC50 against C6. In kind it is cell-based. Here is the method:
as §1, §2

For data set [4], the system named is HepG2 (human liver carcinoma cell line). The data set can be described thus: MTT cytotoxicity assay, HepG2. The data set is classed as cell-based. The following applies: Homo sapiens, read-out: IC50 against HepG2. The procedure:
as §1, §2

Data set [5] concerns HeLa (cervical cell line). The experiment in a line: MTT cytotoxicity assay, HeLa. In kind it is cell-based. The conditions noted are these: Homo sapiens, read-out: IC50 against HeLa. The procedure:
as §1, §2

Data set [6] deals with NIH3T3 (mouse embryo fibroblast cell line). The experiment in a line: MTT cytotoxicity assay, NIH3T3 healthy cells. In kind it is cell-based. The following applies: Mus musculus, read-out: IC50 against NIH3T3. Here is the method: The anticancer activity of compounds 5a–5o were screened according to the MTT assays. The MTT assays were performed as previously described[32]^,[33]. Anticancer activity of final compounds was assessed against five different cancer cell lines A549 (lung carcinoma cell line), HeLa (cervical cell line), MCF-7 (human breast adenocarcinoma cell line), HepG2 (human liver carcinoma cell line) and C6 (rat glioma cell line) cell lines as well as NIH3T3 (mouse embryo fibroblast cell line). Doxorubicin and Hoechst 33342 were used as the reference drugs in the MTT assays. It is crucial that an anticancer agent affects the cancer cell line but having minimal or no side-effect on healthy cells. For this purpose, the cytotoxic effects of the active compounds on the NIH3T3 cell line were investigated (Table 2).

The test system of the next data set is MCF-7 cell line. The experiment in a line: Flow cytometric analysis (Annexin V/PI), MCF-7. The data set is classed as cell-based, human. The following applies: MCF-7 cells. Here is the method:
Death pathway of the carcinogenic cell lines was detected by Annexin V-FITC Apoptosis Detection Kit (BD, Pharmingen) as reported previously described. […] FCS Express software was used to display the percent of normal and apoptotic cells at different stages. […] The experiments were carried out in triplicates.
Annexin V/PI staining on tested cancer cells treated with the active compounds was performed to investigate induction of apoptosis. […] According to the MTT assay, compound 5n for A549 cell line; compounds 5a, 5d, 5e, 5o for MCF-7 cell line; compound 5k for C6 cell line; compound 5a for HepG2 cell line; compounds 5b, 5l and 5n for HeLa cell line were selected for the flow cytometric analysis. Furthermore, flow cytometry studies were performed for reference drug doxorubicin. Flow cytometric analysis diagrams of tested compounds and doxorubicin at IC50/2, IC50, and 2xIC50 concentrations on cancer cells were presented in Figures 7–11.
Background: Flow cytometry measures light scatter and fluorescence of single cells or particles in a stream.

For the next data set, the target named is T1, Topoisomerase I (Homo sapiens, UniProt P11387).
T1 construct: purchased TopoGen TG1018-2
T1 sequence (P11387 1-765): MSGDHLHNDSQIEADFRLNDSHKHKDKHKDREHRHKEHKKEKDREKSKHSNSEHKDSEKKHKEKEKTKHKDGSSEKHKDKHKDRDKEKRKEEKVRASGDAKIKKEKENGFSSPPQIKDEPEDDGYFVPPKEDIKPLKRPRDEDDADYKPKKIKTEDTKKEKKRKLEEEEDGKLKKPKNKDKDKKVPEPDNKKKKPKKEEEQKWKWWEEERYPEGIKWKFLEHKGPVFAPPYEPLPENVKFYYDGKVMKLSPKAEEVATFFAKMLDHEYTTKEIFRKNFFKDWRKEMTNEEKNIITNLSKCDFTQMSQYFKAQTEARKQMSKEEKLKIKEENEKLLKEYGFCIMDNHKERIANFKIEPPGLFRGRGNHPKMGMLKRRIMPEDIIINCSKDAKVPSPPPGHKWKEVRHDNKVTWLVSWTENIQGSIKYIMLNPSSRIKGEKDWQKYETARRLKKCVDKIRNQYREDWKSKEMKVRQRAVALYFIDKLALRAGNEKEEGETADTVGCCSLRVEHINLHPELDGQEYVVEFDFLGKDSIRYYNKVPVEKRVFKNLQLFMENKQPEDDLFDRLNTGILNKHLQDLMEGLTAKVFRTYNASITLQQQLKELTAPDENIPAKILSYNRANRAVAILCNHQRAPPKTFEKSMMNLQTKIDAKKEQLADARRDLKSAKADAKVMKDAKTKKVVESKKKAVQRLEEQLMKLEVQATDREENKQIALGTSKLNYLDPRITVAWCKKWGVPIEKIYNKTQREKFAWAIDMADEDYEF
The data set can be described thus: DNA topoisomerase I assay (relaxation of supercoiled plasmid DNA, agarose gel). The data set is classed as biochemical. The following applies: agarose gel electrophoresis, camptothecin positive control, Figure 12. Here is the method: The topoisomerase I inhibition activities of final compounds were measured as relaxation of supercoiled plasmid DNA using agarose gel electrophoresis and camptothecin was used as a positive control. The assay was carried out in a final volume of 20 µl reaction volume containing 2 µl of 10xTGS Buffer, 6 µl water, 2 µl supercoiled plasmid DNA, 2 µl test compound, 2 µl of Top1, 2 ul 10% SDS, 2 µl proteinase K, 2 µl DNA loading dye. After incubation of reaction mixtures at 37 °C for 30 min, electrophoresis was done on a 1% agarose gel at a potential 50 V for 75 min using 1xTAE buffer.
To determine whether the DNA intercalation properties of compounds 5a, 5b, 5d, 5e, 5k, 5l, 5n and 5o might result in Topo I inhibition, agarose gel electrophores is assay was performed to evaluate the Topo I inhibitory activity of them via agarose-gel electrophoresis and CPT was used as the positive control. The TopoGEN Topoisomerase I Drug Screening Kit were optimised and implemented to accomplish this goal.
In a previous studies, it was said that the compounds poisoning topoisomerase caused the formation of nick bands in such gel appearances, while the formation of Supercoiled bands was said to be caused by catalytic inhibitors that bound to either DNA or enzyme[40]^,[41].

On to `COc1ccc(-c2nc3ccc(-c4nnc(SCC(=O)N5CCN(c6ccccn6)CC5)o4)cc3[nH]2)cc1` [5ı, 2-((5-(2-(4-Methoxyphenyl)-1H-benzo[d]imidazol-6-yl)-1,3,4-oxadiazol-2-yl)thio)-1–(4-(pyridin-2-yl)-piperazin-1-yl)-ethane-1-on], for which the melting point lay within 168.3 to 170.1 °C. Further, in [1], the IC50 was no less than 100 µM. In data set [2], the concentration for half-maximal inhibition (IC50) is no less than 100 µM. For the same compound, the IC50 in [3] is no less than 100 µM. Further, in data set [4], the IC50 is no less than 100 µM. For the same compound, the IC50 in data set [5] is no less than 100 µM.
In the case of `COc1ccc(-c2nc3ccc(-c4nnc(SCC(=O)N5CCN(C)CC5)o4)cc3[nH]2)cc1` [5f, 2-((5-(2-(4-Methoxyphenyl)-1H-benzo[d]imidazol-6-yl)-1,3,4-oxadiazol-2-yl)thio)-1–(4-methyl-piperazin-1-yl)-ethane-1-on], the melting point is 156.6 to 158.7 °C. The IC50 in data set [1] was no less than 100 µM. The IC50 in [2] is no less than 100 µM. Also, the half-maximal inhibitory concentration (IC50) in data set [3] is no less than 100 µM. The IC50 in data set [4] is no less than 100 µM. For the same compound, the IC50 in data set [5] is no less than 100 µM.
Turning to `CCN1CCN(C(=O)CSc2nnc(-c3ccc4nc(-c5ccc(OC)cc5)[nH]c4c3)o2)CC1` [5g, 2-((5-(2-(4-Methoxyphenyl)-1H-benzo[d]imidazol-6-yl)-1,3,4-oxadiazol-2-yl)thio)-1–(4-ethyl-piperazin-1-yl)-ethane-1-on], the melting point is 180.4 to 181.9 °C. In addition, the IC50 in data set [1] was no less than 100 µM. Besides, the 50% inhibitory concentration (IC50) in data set [2] is no less than 100 µM. Further, the IC50 in [3] was no less than 100 µM. For the same compound, the IC50 in data set [4] is no less than 100 µM. The IC50 in data set [5] was no less than 100 µM.
`O=C(CSc1nnc(-c2ccc3nc(-c4ccc(O)cc4)[nH]c3c2)o1)N1CCN(c2ccccc2)CC1` [5c, 2-((5–(2-(4-Hydroxyphenyl)-1H-benzo[d]imidazol-6-yl)-1,3,4-oxadiazol-2-yl)thio)-1–(4-(phenyl) -piperazin-1-yl) -ethane-1-on] came in with a melting point of 271.1 to 273.4 °C. Moreover, the IC50 in [1] is no less than 100 µM. Moreover, in data set [2], the IC50 was no less than 100 µM. Also, in [3], the IC50 is no less than 100 µM. For the same compound, the IC50 in [4] amounted to 21.9 ± 0.991 µM. Also, the IC50 in data set [5] was found to be 20.3 ± 1.1 µM. In data set [6], the IC50 was found to be 44.56 ± 0.221 µM.
As to `COc1ccc(-c2nc3ccc(-c4nnc(SCC(=O)N5CCN(c6ncccn6)CC5)o4)cc3[nH]2)cc1` [5j, 2-((5-(2-(4-Methoxyphenyl)-1H-benzo[d]imidazol-6-yl)-1,3,4-oxadiazol-2-yl)thio)-1–(4-(pyrimidin-2-yl)-piperazin-1-yl)-ethane-1-on], the melting point is 118.7 to 120.3 °C. Besides, in data set [1], the IC50 is no less than 100 µM. The IC50 in [2] was no less than 100 µM. Further, the IC50 in [3] is no less than 100 µM. Besides, in data set [4], the IC50 was no less than 100 µM. Moreover, the IC50 in data set [5] is no less than 100 µM.
On to `CCOc1ccc(-c2nc3ccc(-c4nnc(SCC(=O)N5CCN(c6ccccc6)CC5)o4)cc3[nH]2)cc1` [5m, 2-((5-(2-(4-Ethoxyphenyl)-1H-benzo [d]imidazol-6-yl)-1,3,4-oxadiazol-2-yl)thio)-1–(4-(phenyl)-piperazin-1-yl)-ethane-1-on], for which the melting point is 262.5 to 263.9 °C. Further, the IC50 in [1] was no less than 100 µM. The IC50 in data set [2] was no less than 100 µM. Also, the half-inhibitory concentration (IC50) in [3] was 32.2 ± 1.55 µM. In addition, in [4], the IC50 is no less than 100 µM. The IC50 in data set [5] was no less than 100 µM. In data set [6], the IC50 was 52.3 ± 2.51 µM.
For `CCOc1ccc(-c2nc3ccc(-c4nnc(SCC(=O)N5CCN(c6ncccn6)CC5)o4)cc3[nH]2)cc1` [5o, 2-((5-(2-(4-Ethoxyphenyl)-1H-benzo[d]imidazol-6-yl)-1,3,4-oxadiazol-2-yl)thio)-1–(4-(pyrimidine-2-yl)-piperazin-1-yl)-ethane-1-on], the IC50 is 6.44 ± 0.287 µM in data set [2]; 25 ± 1.24 µM in [3]; 59.4 ± 2.59 µM in data set [4]; no less than 100 µM in data set [5]; 44.1 ± 2.1 µM in data set [6]. In addition, the “percentage of apoptosis (early + late apoptotic cells)” value in the data set with MCF-7 cell line came out at 8.7%. The “Topo I inhibition activity” value at Topoisomerase I is recorded as “potent topo I inhibition activity”.
For `COc1ccc(-c2nc3ccc(-c4nnc(SCC(=O)N5CCN(c6ccccc6)CC5)o4)cc3[nH]2)cc1` [5h, 2-((5-(2-(4-Methoxyphenyl)-1H-benzo[d]imidazol-6-yl)-1,3,4-oxadiazol-2-yl)thio)-1–(4-(phenyl)-piperazin-1-yl)-ethane-1-on], the melting point was in the range of 166.7 to 169.2 °C. Also, the 50% inhibitory concentration (IC50) in [1] was no less than 100 µM. Moreover, the IC50 in data set [2] was no less than 100 µM. The IC50 in data set [3] was no less than 100 µM. For the same compound, the IC50 in [4] was no less than 100 µM. Also, in [5], the half-maximal inhibitory concentration (IC50) was no less than 100 µM.
Take `O=C(CSc1nnc(-c2ccc3nc(-c4ccc(O)cc4)[nH]c3c2)o1)N1CCN(c2ccccn2)CC1` [5d, 2-((5-(2-(4-Hydroxyphenyl)-1H-benzo[d]imidazol-6-yl)-1,3,4-oxadiazol-2-yl)thio)-1-(4-(pyridin-2-yl)-piperazin-1-yl)-ethane-1-on]: the half-inhibitory concentration (IC50) in data set [2] was 9.15 ± 0.391 µM; in data set [3], 38.9 ± 1.92 µM; in data set [4], no less than 100 µM; in data set [5] it was no less than 100 µM; in data set [6], 720.6 ± 5.03 µM. For the same compound, in the data set with MCF-7 cell line, the “percentage of apoptosis (early + late apoptotic cells)” value is 22.3%. Besides, the “Topo I inhibition activity” value on Topoisomerase I is given as “potent topo I inhibition activity”.
On to `CCOc1ccc(-c2nc3ccc(-c4nc5cc(N6CCN(C)CC6)ccc5[nH]4)cc3[nH]2)cc1` [Hoechst 33342, reference compound], for which the IC50 in [2] was found to be 2.4 ± 0.118 µM; in data set [4], 27.8 ± 1.19 µM; in data set [5], 0.306 ± 0.015 µM; in data set [6], 7.39 ± 0.269 µM.
